From patent publication US20200306377A1, “METHODS FOR ENHANCING 5-AMINOLEVULINIC ACID-BASED MEDICAL IMAGING AND PHOTOTHERAPY” (priority 2017, published 2020)

Experiments:
Type in all cases: cell-based
[1] = tested on: SKBR3 human breast cancer cells; experiment: Resistance to photo-bleaching after uptake and irradiation; details: after uptake, 1 minute of irradiation
Procedure: (§1) A 5-ALA solution in deionized H2O at 100 mM was prepared and added when required at a final concentration of 200 uM (6 uL per well). After the predetermined incubation time, cells are fixed using the following protocol. The medium was removed and the cells gently rinsed with PBS buffer (2 mL per well), two mL fixation medium (3.7% formaldehyde in PBS) was added followed by incubation at room temperature (RT) for 15 min. The fixation medium was removed and fresh PBS was added to gently rinse the cells. The coverslips were removed from the wells and mounted on glass slides. […] Within each study, all microscopic settings (filter, light intensity, exposure time, and magnification) were identical. Microscopic images of the cells after treatment with various types of QDs and/or 5-ALA are shown in FIGS. 2A-2L through FIGS. 4A-4K.

[2] = tested on: SKBR3 human breast cancer cells; experiment: Comparison of 5-ALA intracellular uptake, fluorescence microscopy; details: incubation 3, 5, 16 h, QDs about 50 ug/mL, free 5-ALA 200 uM
Procedure: as §1, with “SKBR3 human breast cancer cells are cultivated in 6 well plates supplied with glass coverslips using McCoy's 5a medium from ATCC (3 mL per well). […]” for “A 5-ALA”, “identical.” for “identical. Microscopic images of the cells after treatment with various types of QDs and/or 5-ALA are shown in FIGS. 2A-2L through FIGS. 4A-4K.”

[3] = tested on: normal human fibroblast cells (HFF); experiment: Labeling of normal fibroblast cells; details: 16 hrs, QD 50 μg/mL, free 5-ALA 0.2 mM

**Q.** Which photo-bleaching [1] does the source give for `NCC(=O)CCC(=O)O` [free 5-ALA, 5-Aminolevulinic acid] here?
**A.** Its photo-bleaching is “rapid photo-bleaching and signal disappearance”.

**Q.** What about the “emission at 630 nm” value [2] of the same compound?
**A.** Its value is “weaker emission”.

**Q.** What about the “labeling of normal cells” value [3] of the same compound?
**A.** Its value is “lack of labeling”.
